Reference: patent publication US20080153896A1, “Polymorphic Forms of an HMG-CoA Reductase Inhibitor and Uses Thereof” (priority 2006, published 2008)

Test: Stability (integrity) testing of amorphous and polymorphic form under storage conditions, RP-HPLC
Format: physicochemical
Set-up: Impurity RRT 1.104 / Impurity RRT 1.698: unit not given beside the values
Experimental: The integrity of the different forms of the (3R, 5R)-7-[2-(4-fluorophenyl)-5-isopropyl-3-phenyl-4-[(4-hydroxymethylphenylamino)carbonyl]-pyrrol-1-yl]-3,5-dihydroxy-heptanoic acid, hemi calcium salt, was tested under different atmospheric conditions to determine the stability of the amorphous and polymorphic form of the drug in various storage environments. Reversed Phase-HPLC (RP-HPLC) was used to separate (3R, 5R)-7-[2-(4-fluorophenyl)-5-isopropyl-3-phenyl-4-[(4-hydroxymethylphenylamino)carbonyl]-pyrrol-1-yl]-3,5-dihydroxy-heptanoic acid, hemi calcium salt, from smaller molecules representing breakdown products as well as oxidized drug. The relative amount of the drug was reported as a percent of total absorption by UV. The total peak area of all UV absorption impurities was used to define total impurity of the drug. Impurities are defined by their relative retention time (RRT) compared to native drug. Samples were injected onto a C18 column using standard temperature, gradient and run-time conditions.
The results of this integrity testing for the amorphous form of (3R, 5R)-7-[2-(4-fluorophenyl)-5-isopropyl-3-phenyl-4-[(4-hydroxymethylphenylamino)carbonyl]-pyrrol-1-yl]-3,5-dihydroxy-heptanoic acid, hemi calcium salt, is shown in Table 5.
Three separate batches of polymorphic Form I of (3R, 5R)-7-[2-(4-fluorophenyl)-5-isopropyl-3-phenyl-4-[(4-hydroxymethylphenylamino)carbonyl]-pyrrol-1-yl]-3,5-dihydroxy-heptanoic acid, hemi calcium salt, were prepared and tested under the same atmospheric conditions described for the amorphous form.

[1] = 25° C./60% RH 12M, hemi calcium salt
[2] = 30° C./65% RH 1M, hemi calcium salt
[3] = 30° C./65% RH 2M, hemi calcium salt
[4] = 30° C./65% RH 3M, hemi calcium salt
[5] = 30° C./65% RH 6M, hemi calcium salt
[6] = 30° C./65% RH 9M, hemi calcium salt
[7] = 30° C./65% RH 12M, hemi calcium salt
[8] = 40° C./75% RH 1M, hemi calcium salt
[9] = 40° C./75% RH 2M, hemi calcium salt
[10] = 40° C./75% RH 3M, hemi calcium salt
[11] = 40° C./75% RH 6M, hemi calcium salt
[12] = Initial, listed as Batch 2 of Polymorphic Form I, hemi calcium salt

- Impurity RRT 1.439 (25° C./60% RH 12M): 0.152
- Impurity RRT 1.596 (25° C./60% RH 12M): 0.046
- Impurity RRT 1.698 (25° C./60% RH 12M): 0.053
- Assay [1]: 98.25 % W/W
- Highest Impurity [1]: 0.407
- Impurity RRT 0.935 [1]: 0.365
- Impurity RRT 1.045 [1]: 0.407
- Impurity RRT 1.640 [1]: 0.052
- Total Impurity [1]: 1.522
- Water [1]: 5.02 % W/W
- Description (30° C./65% RH 1M): White
- Impurity RRT 1.096 (30° C./65% RH 1M): 0.24
- Impurity RRT 1.439 (30° C./65% RH 1M): 0.151
- Impurity RRT 1.596 (30° C./65% RH 1M): 0.076
- Impurity RRT 1.698 (30° C./65% RH 1M): 0.065
- Water (30° C./65% RH 1M): 4.16 % W/W
- Assay [2]: 98.23 % W/W
- Highest Impurity [2]: 0.444
- Impurity RRT 0.935 [2]: 0.396
- Impurity RRT 1.045 [2]: 0.444
- Impurity RRT 1.64 [2]: 0.06
- Total Impurity [2]: 1.44
- Description (30° C./65% RH 2M): White
- Impurity RRT 1.096 (30° C./65% RH 2M): 0.242
- Impurity RRT 1.183 (30° C./65% RH 2M): 0.063
- Impurity RRT 1.439 (30° C./65% RH 2M): 0.165
- Impurity RRT 1.596 (30° C./65% RH 2M): 0.074
- Impurity RRT 1.698 (30° C./65% RH 2M): 0.069
- Assay [3]: 98.20 % W/W
- Highest Impurity [3]: 0.449
- Impurity RRT 0.935 [3]: 0.411
- Impurity RRT 1.045 [3]: 0.449
- Impurity RRT 1.64 [3]: 0.063
- Total Impurity [3]: 1.54
- Water [3]: 4.16 % W/W
- Description (30° C./65% RH 3M): White
- Impurity RRT 1.096 (30° C./65% RH 3M): 0.229
- Impurity RRT 1.439 (30° C./65% RH 3M): 0.158
- Impurity RRT 1.596 (30° C./65% RH 3M): 0.074
- Impurity RRT 1.698 (30° C./65% RH 3M): 0.062
- Assay [4]: 98.14 % W/W
- Highest Impurity [4]: 0.437
- Impurity RRT 0.935 [4]: 0.399
- Impurity RRT 1.045 [4]: 0.437
- Impurity RRT 1.64 [4]: 0.058
- Total Impurity [4]: 1.42
- Water [4]: 5.02 % W/W
- Description (30° C./65% RH 6M): White
- Impurity RRT 1.096 (30° C./65% RH 6M): 0.218
- Impurity RRT 1.439 (30° C./65% RH 6M): 0.156
- Impurity RRT 1.596 (30° C./65% RH 6M): 0.070
- Impurity RRT 1.698 (30° C./65% RH 6M): 0.063
- Assay [5]: 98.09 % W/W
- Highest Impurity [5]: 0.460
- Impurity RRT 0.935 [5]: 0.409
- Impurity RRT 1.045 [5]: 0.460
- Impurity RRT 1.640 [5]: 0.054
- Total Impurity [5]: 1.430
- Water [5]: 4.96 % W/W
- Description (30° C./65% RH 9M): White
- Impurity RRT 1.096 (30° C./65% RH 9M): 0.232
- Impurity RRT 1.183 (30° C./65% RH 9M): 0.036
- Impurity RRT 1.439 (30° C./65% RH 9M): 0.182
- Impurity RRT 1.596 (30° C./65% RH 9M): 0.053
- Impurity RRT 1.698 (30° C./65% RH 9M): 0.048
- Assay [6]: 98.07 % W/W
- Highest Impurity [6]: 0.442
- Impurity RRT 0.935 [6]: 0.404
- Impurity RRT 1.045 [6]: 0.442
- Impurity RRT 1.640 [6]: 0.058
- Total Impurity [6]: 1.455
- Water [6]: 5.10 % W/W
- Description (30° C./65% RH 12M): White
- Impurity RRT 0.138 (30° C./65% RH 12M): 0.200
- Impurity RRT 1.096 (30° C./65% RH 12M): 0.192
- Impurity RRT 1.183 (30° C./65% RH 12M): 0.048
- Impurity RRT 1.439 (30° C./65% RH 12M): 0.163
- Impurity RRT 1.596 (30° C./65% RH 12M): 0.065
- Impurity RRT 1.698 (30° C./65% RH 12M): 0.045
- Assay [7]: 98.35 % W/W
- Highest Impurity [7]: 0.399
- Impurity RRT 0.935 [7]: 0.399
- Impurity RRT 1.045 [7]: 0.360
- Impurity RRT 1.640 [7]: 0.048
- Total Impurity [7]: 1.520
- Water [7]: 4.87 % W/W
- Description (40° C./75% RH 1M): White
- Impurity RRT 1.096 (40° C./75% RH 1M): 0.244
- Impurity RRT 1.439 (40° C./75% RH 1M): 0.153
- Impurity RRT 1.596 (40° C./75% RH 1M): 0.080
- Impurity RRT 1.698 (40° C./75% RH 1M): 0.062
- Assay [8]: 98.15 % W/W
- Highest Impurity [8]: 0.444
- Impurity RRT 0.935 [8]: 0.404
- Impurity RRT 1.045 [8]: 0.444
- Impurity RRT 1.64 [8]: 0.061
- Total Impurity [8]: 1.45
- Water [8]: 4.71 % W/W
- Description (40° C./75% RH 2M): White
- Impurity RRT 1.096 (40° C./75% RH 2M): 0.234
- Impurity RRT 1.183 (40° C./75% RH 2M): 0.072
- Impurity RRT 1.439 (40° C./75% RH 2M): 0.175
- Impurity RRT 1.596 (40° C./75% RH 2M): 0.079
- Impurity RRT 1.698 (40° C./75% RH 2M): 0.065
- Assay [9]: 98.19 % W/W
- Highest Impurity [9]: 0.457
- Impurity RRT 0.935 [9]: 0.416
- Impurity RRT 1.045 [9]: 0.457
- Impurity RRT 1.64 [9]: 0.066
- Total Impurity [9]: 1.56
- Water [9]: 4.35 % W/W
- Description (40° C./75% RH 3M): White
- Impurity RRT 1.096 (40° C./75% RH 3M): 0.229
- Impurity RRT 1.439 (40° C./75% RH 3M): 0.165
- Impurity RRT 1.596 (40° C./75% RH 3M): 0.078
- Impurity RRT 1.698 (40° C./75% RH 3M): 0.06
- Assay [10]: 98.09 % W/W
- Highest Impurity [10]: 0.442
- Impurity RRT 0.935 [10]: 0.413
- Impurity RRT 1.045 [10]: 0.442
- Impurity RRT 1.64 [10]: 0.056
- Total Impurity [10]: 1.44
- Water [10]: 4.45 % W/W
- Description (40° C./75% RH 6M): White
- Impurity RRT 0.138 (40° C./75% RH 6M): 0.270
- Impurity RRT 1.096 (40° C./75% RH 6M): 0.217
- Impurity RRT 1.439 (40° C./75% RH 6M): 0.146
- Impurity RRT 1.596 (40° C./75% RH 6M): 0.073
- Impurity RRT 1.698 (40° C./75% RH 6M): 0.052
- Assay [11]: 98.14 % W/W
- Highest Impurity [11]: 0.410
- Impurity RRT 0.935 [11]: 0.377
- Impurity RRT 1.045 [11]: 0.410
- Impurity RRT 1.640 [11]: 0.045
- Total Impurity [11]: 1.590
- Water [11]: 5.45 % W/W
- Description (Initial): White
- Impurity RRT 1.096 (Initial): 0.229
- Impurity RRT 1.439 (Initial): 0.168
- Impurity RRT 1.596 (Initial): 0.075
- Impurity RRT 1.698 (Initial): 0.062
- Assay [12]: 98.45 % W/W
- Highest Impurity [12]: 0.457
- Impurity RRT 0.935 [12]: 0.413
- Impurity RRT 1.045 [12]: 0.457
- Impurity RRT 1.64 [12]: 0.057
- Total Impurity [12]: 1.46
- Water [12]: 4.92 % W/W
SMILES: CC(C)c1c(C(=O)Nc2ccc(CO)cc2)c(-c2ccccc2)c(-c2ccc(F)cc2)n1CC[C@@H](O)C[C@@H](O)CC(=O)[O-].CC(C)c1c(C(=O)Nc2ccc(CO)cc2)c(-c2ccccc2)c(-c2ccc(F)cc2)n1CC[C@@H](O)C[C@@H](O)CC(=O)[O-].[Ca+2] [PP00105, (3R, 5R)-7-[2-(4-fluorophenyl)-5-isopropyl-3-phenyl-4-[(4-hydroxymethylphenylamino)carbonyl]-pyrrol-1-yl]-3,5-dihydroxy-heptanoic acid, hemi calcium salt]
